The record followed here is patent US10172843B2, “Piperidine derivatives” (Hoffmann-La Roche Inc., priority 2014, dated 2019).

Broadly, the IC50 is the concentration needed to halve the response being measured.

Sequence of human Cat S (P25774 115-331): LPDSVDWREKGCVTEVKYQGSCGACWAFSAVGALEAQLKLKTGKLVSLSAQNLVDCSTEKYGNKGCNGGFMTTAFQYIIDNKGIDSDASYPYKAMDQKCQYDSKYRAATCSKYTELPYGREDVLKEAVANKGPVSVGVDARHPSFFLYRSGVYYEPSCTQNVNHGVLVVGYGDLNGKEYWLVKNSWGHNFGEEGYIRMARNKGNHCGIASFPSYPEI

The first test deals with human Cat S (Homo sapiens (Human), UniProt P25774). Put plainly: Cathepsin enzyme inhibition assay (fluorogenic peptide substrate). Format: biochemical. The note with it: human Cat S, enzyme 1 nM, substrate Z-Val-Val-Arg-AMC, pH 6.5; read-out: CatS IC50. Here is the method:
Cathepsin Enzyme Inhibition Assay
Enzyme activity is measured by observing the increase in fluorescence intensity caused by cleavage of a peptide substrate containing a fluorophore whose emission is quenched in the intact peptide.
Assay buffer: 100 mM potassium phosphate pH 6.5, EDTA-Na 5 mM, Triton X-100 0.001%, DTT 5 mM.
Enzymes (all at 1 nM): human and mouse Cathepsin S, Cat K, Cat B, Cat L.
Substrate ([…], except for Cat K which uses Z-Leu-Arg-AMC (both from Bachem).
Excitation 360 nm, Emission 465 nm.
Enzyme is added to the substance dilutions in 96-well microtitre plates and the reaction is started with substrate. […] IC50 are calculated by standard methods.
Inhibition of human Cat S, mouse Cat S, human Cat K, mouse Cat K, human Cat B, mouse Cat B, human Cat L and mouse Cat L have been measured separately.
Consider “5-(4-Bromophenyl)-3-[1-[[2-[4-(trifluoromethyl)phenyl]-1H-imidazol-5-yl]methyl]-4-piperidyl]-1H-imidazol-2-one [Example 15]”, for which the IC50 turned out to be 4560 nM. For `Cc1[nH]c(-c2ccc(C(F)(F)F)cc2)nc1CN1CCC(n2cnc3ccccc32)CC1` [Example 3, 1-{1-[5-Methyl-2-(4-trifluoromethyl-phenyl)-1H-imidazol-4-ylmethyl]-piperidin-4-yl}-1H-benzoimidazole], the IC50 is 450 nM. On to `Cc1nc(-c2ccc(C(F)(F)F)cc2)[nH]c1CN1CCC(N2CCCCC2=O)CC1` [Example 8, 1-[1-[[4-Methyl-2-[4-(trifluoromethyl)phenyl]-1H-imidazol-5-yl]methyl]-4-piperidyl]piperidin-2-one], for which the IC50 turned out to be 3280 nM. Still for that read-out and setting: the same measure for `Cc1[nH]c(-c2ccc(C(F)(F)F)cc2)nc1CN1CCC(n2c(=O)[nH]c3ccc(N4CCCC4)cc32)CC1` [Example 9, 1-{1-[5-Methyl-2-(4-trifluoromethyl-phenyl)-1H-imidazol-4-ylmethyl]-piperidin-4-yl}-6-pyrrolidin-1-yl-1,3-dihydro-benzoimidazol-2-one]: 190 nM; for `Cc1[nH]c(-c2ccc(C(F)(F)F)cc2)nc1CN1CCC(n2c(=O)[nH]c3ccc(N4CCOCC4)cc32)CC1` [Example 10, 1-{1-[5-Methyl-2-(4-trifluoromethyl-phenyl)-1H-imidazol-4-ylmethyl]-piperidin-4-yl}-6-morpholin-4-yl-1,3-dihydro-benzoimidazol-2-one]: 280 nM. On the same count and under the same terms, then `Cc1[nH]c(-c2ccc(C(F)(F)F)cc2)nc1CN1CCC(n2c(=O)[nH]c3ccc(N4CCN(C)CC4)cc32)CC1` [Example 11, 6-(4-Methyl-piperazin-1-yl)-1-{1-[5-methyl-2-(4-trifluoromethyl-phenyl)-1H-imidazol-4-ylmethyl]-piperidin-4-yl}-1,3-dihydro-benzoimidazol-2-one], with 460 nM.

As for `Cc1nc(-c2ccc(C(F)(F)F)cc2)[nH]c1CN1CCC(n2cc(-c3ccc(Br)cc3)[nH]c2=O)CC1` [Example 12, 5-(4-Bromophenyl)-3-[1-[[4-methyl-2-[4-(trifluoromethyl)phenyl]-1H-imidazol-5-yl]methyl]-4-piperidyl]-1H-imidazol-2-one], the IC50 was found to be 590 nM.

With `Cc1nc(-c2ccc(C(F)(F)F)cc2)[nH]c1CN1CCC(n2cnc3c(=O)[nH]ccc32)CC1` [Example 13, 1-[1-[[4-Methyl-2-[4-(trifluoromethyl)phenyl]-1H-imidazol-5-yl]methyl]-4-piperidyl]-5H-imidazo[4,5-c]pyridin-4-one], the IC50 amounted to 2750 nM.

For the compound `O=c1[nH]ccc2c1ncn2C1CCN(Cc2cnc(-c3ccc(C(F)(F)F)cc3)[nH]2)CC1` [Example 14, 1-[1-[[2-[4-(Trifluoromethyl)phenyl]-1H-imidazol-5-yl]methyl]-4-piperidyl]-5H-imidazo[4,5-c]pyridin-4-one], the IC50 amounted to 4320 nM. Same read-out and setting: then `O=c1[nH]c(-c2ccc(Br)cc2)nn1C1CCN(Cc2cnc(-c3ccc(C(F)(F)F)cc3)[nH]2)CC1` [Example 16, 5-(4-Bromophenyl)-2-[1-[[2-[4-(trifluoromethyl)phenyl]-1H-imidazol-5-yl]methyl]-4-piperidyl]-4H-1,2,4-triazol-3-one], with 1500 nM; and `O=C1Nc2ccc(Br)cc2CN1C1CCN(Cc2cnc(-c3ccc(C(F)(F)F)cc3)[nH]2)CC1` [Example 17, 6-Bromo-3-[1-[[2-[4-(trifluoromethyl)phenyl]-1H-imidazol-5-yl]methyl]-4-piperidyl]-1,4-dihydroquinazolin-2-one], with 195 nM.

The test is the same for the next values; noted with them: read-out: CatS IC50.
Turning to `Cc1[nH]c(-c2ccc(C(F)(F)F)cc2)nc1CN1CCC(N2C(=O)Cc3ccccc32)CC1` [Example 2, 1-{1-[5-Methyl-2-(4-trifluoromethyl-phenyl)-1H-imidazol-4-ylmethyl]-piperidin-4-yl}-1,3-dihydro-indol-2-one], the IC50 came out at 780 nM.
